In US20240183843A1, “METHOD FOR EVALUATING EXCRETION OF SUBSTANCE OF INTEREST BY HUMAN HEPATOCYTE-LIKE CELL” (JSR Corporation, priority 2020, published 2024):

Tests used:
P-glycoprotein (P-gp) [1] = target: T1, P-glycoprotein (P-gp) (Homo sapiens, UniProt P08183); assay: Quantification of Rho123 incorporated into inner cavity of present evaluation model by LC/MS; assay type: in vitro ADME; design: In the obtained culture, an inner cavity due to the membrane of the human hepatocyte-like cell was formed; host or cells: human hepatocyte-like cells (organoid or sac-like material) cultured from human primary hepatocytes; details: Rho123 10 μM in culture solution, 37°C, 30 min
Experimental: (§1) The culture of human liver cells after the subculturing in Experimental Example 1, the culture medium in Table 1, and 2% by volume of Matrigel with respect to the culture medium were added to a 6-well culture plate (manufactured by Sumitomo Bakelite Co., Ltd., MS-8006R), followed by the suspension culture at 37° ° C. for 3 days in the presence of 5% by volume of CO2 to form a sac-like material.
(§2) In Experimental Example 2, Rho123 (10 μM), which is a substrate for P-glycoprotein (P-gp), was added to the culture solution after the suspension culture. The incorporation of the Rho123 into the inner cavity of the present evaluation model was carried out at 37 °C for 30 min in the presence of 5% by volume of CO2. A culture solution containing the present evaluation model was placed in a low-adsorption 15 mL tube by pipetting, followed by centrifugation.
The present evaluation model of Experimental Example 3, into which Rho123 had been incorporated, was mixed with methanol to kill the human hepatocyte-like cells. After mixing, centrifugation was carried out to extract the supernatant. The supernatant was subjected to analysis by a liquid chromatography-mass spectrometer (LC/MS) (manufactured by SHIMADZU CORPORATION, LCMSTM-8040), and from the concentration and amount of the Rho123 incorporated into the inner cavity and the concentration of the Rho123 in the culture solution, the proportion of the present evaluation model transported into the inner cavity was calculated.
• Column: Xbridge C18 3.5 μm, 2.1 mm×50 mm • Column temperature: 40° ° C. • Internal standard substance: Tolbutamine • Elution solvent: A solution (a 0.1% by mass formic acid solution), B solution (acetonitrile) • Gradient conditions: see Table 2 • Runtime: 7 minutes • Flow rate: 0.4 mL/min • Injection volume: 3 μL
• Mode: Positive (*the standard substance is in a negative mode)

P-glycoprotein (P-gp) [2] = target: T1, P-glycoprotein (P-gp); assay: Rho123 excretion of present evaluation model (sac-like material, suspension culture), fluorescence microscopy; assay type: in vitro ADME; design: In the obtained culture, an inner cavity due to the membrane of the human hepatocyte-like cell was formed; host or cells: human hepatocyte-like cells (organoid or sac-like material) cultured from human primary hepatocytes; details: Rho123 10 μM, 37°C, 30 min, 5% CO2; sac-like material of human hepatocyte-like cells, 2% by volume Matrigel suspension culture; FIG. 2A/2B
Experimental: as §1, §2

P-glycoprotein (P-gp) [3] = target: T1, P-glycoprotein (P-gp)
Experimental: Rho123 (10 μM) was added to the culture solution containing the culture embedded in Matrigel after the culturing prepared in Experimental Example 1, and the incorporation of the Rho123 into the inner cavity of the culture was carried out at 37° C. for 30 min in the presence of 5% by volume of CO2.
The polymerized Matrigel was degraded by pipetting and enzymatic treatment (Corning (registered trade name) Cell Recovery Solution) in order to measure the amount of the incorporated Rho123.

MRP2 = target: T2, MRP2 (Homo sapiens, UniProt Q92887); assay: CDFDA excretion of present evaluation model, microscopy; assay type: in vitro ADME; details: CDFDA 2 μM, 5 µM, or 10 µM, 37°C, 30 min, 5% CO2; FIG. 5
T2 construct: host or cells: human hepatocyte-like cells (sac-like material) cultured from human primary hepatocytes
Experimental: as §1
as §2, with “2 μM, 5 µM, or 10 µM of carboxydichlorofluorescein diacetate (CDFDA),” for “Rho123 (10 μM),”, “of MRP2,” for “for P-glycoprotein (P-gp),”, “CDFDA” for “Rho123”, “ml” for “mL”

T1 sequence (P08183 whole entry): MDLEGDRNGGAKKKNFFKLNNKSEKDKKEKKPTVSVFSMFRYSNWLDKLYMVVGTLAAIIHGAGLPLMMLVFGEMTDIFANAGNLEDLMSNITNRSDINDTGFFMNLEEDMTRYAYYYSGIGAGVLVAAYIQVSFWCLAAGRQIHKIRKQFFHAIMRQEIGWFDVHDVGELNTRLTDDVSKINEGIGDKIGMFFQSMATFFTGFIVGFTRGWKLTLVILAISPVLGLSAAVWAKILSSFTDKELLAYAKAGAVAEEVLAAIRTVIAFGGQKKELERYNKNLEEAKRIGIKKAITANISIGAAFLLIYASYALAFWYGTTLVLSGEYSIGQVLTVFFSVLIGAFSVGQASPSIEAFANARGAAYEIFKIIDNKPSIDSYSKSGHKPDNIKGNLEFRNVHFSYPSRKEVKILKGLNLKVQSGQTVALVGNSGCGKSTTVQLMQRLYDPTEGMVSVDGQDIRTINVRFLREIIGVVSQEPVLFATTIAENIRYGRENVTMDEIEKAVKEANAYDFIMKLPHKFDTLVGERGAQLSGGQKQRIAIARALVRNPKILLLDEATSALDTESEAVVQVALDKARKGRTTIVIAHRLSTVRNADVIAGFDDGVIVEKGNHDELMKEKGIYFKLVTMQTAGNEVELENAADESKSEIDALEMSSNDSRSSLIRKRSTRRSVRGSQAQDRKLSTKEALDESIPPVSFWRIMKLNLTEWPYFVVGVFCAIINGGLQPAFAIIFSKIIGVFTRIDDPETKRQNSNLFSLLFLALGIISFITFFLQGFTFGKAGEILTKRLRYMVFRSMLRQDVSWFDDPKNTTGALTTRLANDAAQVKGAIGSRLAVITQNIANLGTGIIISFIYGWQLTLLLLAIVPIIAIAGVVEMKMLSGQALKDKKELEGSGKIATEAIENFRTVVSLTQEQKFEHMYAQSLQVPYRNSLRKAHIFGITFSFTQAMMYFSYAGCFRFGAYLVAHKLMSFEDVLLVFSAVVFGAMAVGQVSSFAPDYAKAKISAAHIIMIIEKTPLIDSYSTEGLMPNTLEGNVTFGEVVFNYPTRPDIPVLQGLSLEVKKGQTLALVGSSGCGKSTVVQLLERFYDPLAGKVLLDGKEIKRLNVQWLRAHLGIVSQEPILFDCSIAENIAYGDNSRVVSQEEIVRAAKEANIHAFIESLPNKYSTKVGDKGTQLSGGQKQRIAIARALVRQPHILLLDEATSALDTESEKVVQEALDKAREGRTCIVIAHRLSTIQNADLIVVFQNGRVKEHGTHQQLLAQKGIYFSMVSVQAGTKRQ
T2 sequence (Q92887 whole entry): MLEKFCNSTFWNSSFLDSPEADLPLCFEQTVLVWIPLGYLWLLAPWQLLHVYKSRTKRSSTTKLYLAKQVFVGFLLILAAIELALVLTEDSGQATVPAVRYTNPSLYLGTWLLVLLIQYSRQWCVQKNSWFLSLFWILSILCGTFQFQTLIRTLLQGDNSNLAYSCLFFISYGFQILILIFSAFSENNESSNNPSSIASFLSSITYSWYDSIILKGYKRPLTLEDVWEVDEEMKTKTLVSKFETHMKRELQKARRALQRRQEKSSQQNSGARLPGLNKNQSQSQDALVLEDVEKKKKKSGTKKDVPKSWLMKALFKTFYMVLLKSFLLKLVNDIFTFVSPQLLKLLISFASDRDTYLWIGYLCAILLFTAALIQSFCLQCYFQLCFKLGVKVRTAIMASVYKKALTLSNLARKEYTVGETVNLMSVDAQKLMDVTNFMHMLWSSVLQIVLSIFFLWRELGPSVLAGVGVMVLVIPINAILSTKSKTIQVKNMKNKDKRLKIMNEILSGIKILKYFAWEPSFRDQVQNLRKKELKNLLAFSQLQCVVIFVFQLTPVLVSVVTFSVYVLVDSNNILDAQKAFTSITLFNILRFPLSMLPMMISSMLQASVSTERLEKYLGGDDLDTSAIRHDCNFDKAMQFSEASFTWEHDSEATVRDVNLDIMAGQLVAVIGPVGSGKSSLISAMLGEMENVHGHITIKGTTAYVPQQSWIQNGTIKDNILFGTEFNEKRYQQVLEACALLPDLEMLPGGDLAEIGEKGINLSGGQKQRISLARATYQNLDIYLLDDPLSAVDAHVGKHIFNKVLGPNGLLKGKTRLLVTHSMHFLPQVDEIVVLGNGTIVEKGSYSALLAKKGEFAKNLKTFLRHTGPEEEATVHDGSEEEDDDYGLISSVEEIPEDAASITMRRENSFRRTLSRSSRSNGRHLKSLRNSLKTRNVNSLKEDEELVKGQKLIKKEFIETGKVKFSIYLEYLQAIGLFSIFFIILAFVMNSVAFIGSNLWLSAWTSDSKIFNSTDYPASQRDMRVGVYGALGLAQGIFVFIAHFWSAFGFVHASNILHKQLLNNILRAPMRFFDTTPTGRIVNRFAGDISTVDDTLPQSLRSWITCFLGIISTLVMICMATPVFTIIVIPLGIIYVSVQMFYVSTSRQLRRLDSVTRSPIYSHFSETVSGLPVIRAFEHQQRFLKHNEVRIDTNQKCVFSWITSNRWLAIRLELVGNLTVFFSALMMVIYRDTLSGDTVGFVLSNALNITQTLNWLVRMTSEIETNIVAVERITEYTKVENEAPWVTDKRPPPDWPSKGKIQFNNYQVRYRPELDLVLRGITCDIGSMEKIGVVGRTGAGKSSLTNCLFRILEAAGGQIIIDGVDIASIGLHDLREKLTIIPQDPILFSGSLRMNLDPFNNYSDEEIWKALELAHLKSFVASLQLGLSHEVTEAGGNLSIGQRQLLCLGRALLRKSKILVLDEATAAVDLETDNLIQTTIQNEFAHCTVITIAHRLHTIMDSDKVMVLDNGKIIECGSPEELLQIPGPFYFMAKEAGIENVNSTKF

`COC(=O)c1ccccc1-c1c2ccc(=N)cc-2oc2cc(N)ccc12.Cl` [Rho123] was tested. Which “Proportion transported into present evaluation model” value (P-glycoprotein (P-gp) [1]; calculated from concentration and amount in inner cavity and concentration in culture solution) did it give?
Its value is 1.23%.

What about the “Amount of Rho123 in present evaluation model” value (P-glycoprotein (P-gp) [1]; methanol extraction, LC/MS) of the same compound?
The value was 0.123 nmol.

What about the “Concentration of Rho123 in present evaluation model” value (P-glycoprotein (P-gp) [1]; methanol extraction, LC/MS) of the same compound?
The value was 615.4 nM.

What about the “Excretion into the inner cavity of the present evaluation model (microscopy)” value (P-glycoprotein (P-gp) [2]) of the same compound?
The value was “excreted into the inner cavity of the present evaluation model”.

And the “Incorporation into the inner cavity of the culture (microscopy)” value (P-glycoprotein (P-gp) [3])?
Its value is “incorporation of Rho123 into the inner cavity of the culture was confirmed”.

“carboxydichlorofluorescein diacetate [CDFDA]” was tested. Which “Excretion into the inner cavity of the present evaluation model (microscopy)” value (MRP2) did it give?
The value was “excreted into the inner cavity of the present evaluation model”.
